Experimental data reported in patent publication US9810687B2, “Nanocomposites and methods of making same” (BOARD OF TRUSTEES OF THE UNIVERSITY OF ARKANSAS, priority 2013, dated 2017).

Columns and labels:
[1] = system: human pancreatic cancer cell line Panc-1; experiment: Anticancer/apoptotic effects of PTL, DMAPT and their fGn complexes; conditions: drug alone or as mixture with fGn
Description: A water-soluble PTL analog, dimethylaminoparthenolide (DMAPT), was also examined for comparison with the anticancer efficacy of our PTL-fGn complex.
PTL was obtained from Sigma-Aldrich (USA). […] PTL and DMAPT were dissolved in DMSO to create 10 mM stock solutions. To create the PTL-fGn and DMAPT-fGn complexes, the drug was added to fGn solution in media (final drug-fGn complex concentrations were 1, 10, 20, 30, 50, and 100 mM drug and 10 mg/ml fGn), sonicated for 1 h, and then stored at 4° C. before being incubated with cancer cell, such as, Panc-1 cells, or being delivered to a patient.

MCF-7 = experiment: Cytotoxicity of GA delivered by Gn and SWCNT, breast cancer cells; type: cell-based, human; conditions: breast cancer cells in vitro
Description: (§1) In this example, Gn and SWCNT were used to deliver the natural low-toxicity drug GA to breast and pancreatic cancer cells in vitro, and the effectiveness of this complex in suppressing cellular integrity was assessed. Cytotoxicity was assessed by measuring lactate dehydrogenase release, mitochondria dehydrogenase activity, mitochondrial membrane depolarization, DNA fragmentation, intracellular lipid content, and membrane permeability/caspase activity. […] This analysis represents a first step toward assessing their effectiveness in more complex, targeted, nanodelivery systems.
(§2) Gn and SWCNT (10 μg/ml) were mixed with GA (0.5, 0.75 and 1 μg/ml) to be described as GA+Gn and GA+SWCNT. First, the samples were vortexed at a high speed for at least 4 h to allow the drug to bind to the nanomaterials via π-π stacking. […] The loading concentrations of the GA on Gn and SWCNT were determined by UV-Vis absorbance at 360 nm measured using a Shimadzu UV-3600 spectrophotometer (Shimadzu Scientific Instruments, Colombia, Me., USA).
(§3) The amount of drug loaded was calculated by peak absorbance at 360 nm after subtracting the background of absorbance from Gn and SWCNT. It is determined that, after vortexing, 98% of the free GA was bound to the Gn (GA−Gn=0.98: 10 μg/ml) and that 88% was bound to the SWCNT (GA−SWCNT=0.88: 10 μg/ml).

Panc-1 = experiment: Cytotoxicity of GA delivered by Gn and SWCNT, pancreatic cancer cells; type: cell-based, human; conditions: pancreatic cancer cells in vitro
Description: as §1, §2, §3

Structure (SMILES) | IC50 [1] | antiproliferative effects upon nanodelivery (MCF-7) | antiproliferative effects upon nanodelivery (Panc-1)
C/C1=C\CC[C@@]2(C)O[C@@H]2[C@H]2OC(=O)[C@H](CN(C)C)[C@@H]2CC1 [DMAPT, dimethylaminoparthenolide] | significantly higher than that for PTL-fGn |  | 
CC(C)=CCC[C@]1(C)C=Cc2c(O)c3c(c(CC=C(C)C)c2O1)O[C@]12C(=C[C@@H]4C[C@H]1C(C)(C)O[C@@]2(C/C=C(/C)C(=O)O)C4=O)C3=O [GA, Gambogic Acid] |  | significantly enhanced | significantly enhanced
